Measurements as given in PMC9545763, “Therapeutic potential of deuterium‐stabilized (R)‐pioglitazone—PXL065—for X‐linked adrenoleukodystrophy” (Journal of Inherited Metabolic Disease, 2022).

Target: T1, ACSL4 (long-chain acyl-CoA synthetase 4) (Rattus norvegicus, UniProt O35547)
T1 construct: purified recombinant rat FLAG-ACSL4
Assay: ACSL enzyme activity assay with […] palmitate, scintillation counting
Assay type: biochemical

T1 sequence (O35547 whole entry): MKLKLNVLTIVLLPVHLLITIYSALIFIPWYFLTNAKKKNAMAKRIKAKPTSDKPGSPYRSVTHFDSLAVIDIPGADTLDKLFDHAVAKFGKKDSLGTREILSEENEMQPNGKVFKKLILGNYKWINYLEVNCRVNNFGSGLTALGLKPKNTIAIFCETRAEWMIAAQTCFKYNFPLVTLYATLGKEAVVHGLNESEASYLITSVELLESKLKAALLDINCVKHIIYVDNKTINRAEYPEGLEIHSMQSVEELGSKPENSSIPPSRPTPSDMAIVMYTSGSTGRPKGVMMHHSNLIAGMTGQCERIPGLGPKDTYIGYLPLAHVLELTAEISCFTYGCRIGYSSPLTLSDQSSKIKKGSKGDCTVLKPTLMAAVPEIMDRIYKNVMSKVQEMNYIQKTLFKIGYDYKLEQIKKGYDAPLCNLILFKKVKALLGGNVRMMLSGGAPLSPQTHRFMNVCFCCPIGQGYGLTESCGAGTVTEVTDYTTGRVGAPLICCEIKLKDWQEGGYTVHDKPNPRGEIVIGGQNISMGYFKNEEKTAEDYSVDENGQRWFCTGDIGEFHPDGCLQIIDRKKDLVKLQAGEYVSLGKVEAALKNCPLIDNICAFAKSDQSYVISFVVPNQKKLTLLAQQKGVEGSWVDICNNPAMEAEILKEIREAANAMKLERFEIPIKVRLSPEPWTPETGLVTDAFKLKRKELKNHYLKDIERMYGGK

With CCc1ccc(CCOc2ccc(CC3SC(=O)NC3=O)cc2)nc1 (racemic) [pioglitazone] the IC50 was 2080 nM.
CCc1ccc(CCOc2ccc(C[C@H]3SC(=O)NC3=O)cc2)nc1 [PXL065] was tested, and the IC50 was 2120 nM.
